For the experiment, the system named is Quadruplex DNA. Briefly: Binding affinity to c-myc G-quadruplex DNA (unknown origin) assessed as increase in melting temperature at 50 uM by CD-spectrometric analysis. Format: nucleic-acid assay.

Among the data in ChEMBL document CHEMBL4425083, “Quadruplex Nucleic Acids as Novel Therapeutic Targets” (J Med Chem, 2016) are ΔTm values, retold here.

Molecules are shown by their SMILES.

As usually defined, the ΔTm is the shift of the melting midpoint relative to a reference. Consider `Cc1ccc(NC(=O)c2c(C)oc3ccc(O)c(CN4CCCCCC4)c23)cc1`, for which the ΔTm came out at 2.1 °C.
